This is an account of results in article PMC12534982 (Journal of Experimental & Clinical Cancer Research : CR, 2025).

Each structure is given as a SMILES string.

One data set deals with human DHODH. Conditions: cited from earlier work.
Data set [1] has as its system SW620 cells. The note with it: 96 h.
Another data set addresses T1, Δ29 DHODH (N-truncated) (Homo sapiens, UniProt Q02127).
T1 construct: N-terminal truncated form of human DHODH (Δ29), where the N-terminal transmembrane domain was removed; made in house
Kind of data set: In vitro DHODH enzyme activity assay. The note with it: 1 mM DHO; ± SD. Format: biochemical. As to the method: The assays to determine the inhibition constants of inhibitors of the recombinant DHODH enzymes are described in [28, 29].
The IC50 values were determined by fitting the equation V = V max/(1 + (I/IC50)^h) to the assay data using SigmaPlot14 (Systat Software Inc.). In this equation, V represents the measured enzyme activity, while V max indicates the maximum enzyme activity reached. I denotes the inhibitor concentration, and h describes the slope of the fitted curve.

For data set [2], the system named is SW620 cells. Briefly: Mitochondrial respiration (OCR) in intact cells. Format: cell-based, human. The note with it: 24 h. As to the method:
Oxygen consumption rate (OCR) was measured using a high-resolution respirometer (Oxygraph-2k, Oroboros Instruments, Innsbruck, Austria). SW620 cells (2.2 × 10^6) were cultured in 100-mm Petri dishes and treated with DMSO or NK-A 17E-233I (25 µM) for 24 h. Cells were harvested at 80% confluency using 0.25% trypsin/EDTA and resuspended in complete DMEM at a concentration of 5 × 10^5 cells/mL. The cells were subsequently analyzed in two 2 mL Oxygraph chambers. Real-time measurements of OCR were conducted at 37 °C under basal conditions and following the sequential addition of inhibitors targeting various mitochondrial respiratory complexes: oligomycin (2.5 μM) to inhibit complex V (to assess ATP-linked respiration and leak rate), carbonyl cyanide-p-trifluoromethoxyphenylhydrazone (FCCP) with stepwise titration in 0.5 μM increments (to evaluate maximal electron transport system respiratory capacity and reserve capacity), and rotenone (0.5 μM) and antimycin A (2.5 μM) to inhibit complex I and complex III, respectively (to measure non-mitochondrial oxygen consumption). The values of OCR were normalized to mitochondrial DNA copy number, which was quantified by qPCR using the primers referenced above. Data analysis was performed using DatLab7 (Oroboros, Austria) software.

Data set [3] deals with colorectal cancer cells. Kind of data set: Western blot. The note with it: NK-A 17E-233I 25 µM; Brequinar. Format: cell-based, human. Here is the method: Cancer cells (2.2 × 10^6) were cultured in 100-mm Petri dishes and treated with DMSO or NK-A 17E-233I (25 µM) for 48 h. Cells were harvested by scrapping into 2 × Laemmli buffer (4% SDS, 20% glycerol, 125 mM Tris–HCl, pH 6.8) and heated at 100 °C for 5 min. A 4 × Laemmli sample buffer containing β-mercaptoethanol was added to the cell lysates. The proteins were separated using sodium dodecyl sulfate polyacrylamide gel electrophoresis (SDS-PAGE) and subsequently transferred to polyvinylidene fluoride (PVDF) membranes (#88518; Thermo Fisher Scientific) following the manufacturer’s protocols. The membranes were blocked at room temperature for 1 h with 5% dried skimmed milk in Tris-buffered saline with Tween-20 (TBS-T) (20 mM Tris–HCl, pH 7.5, 150 mM NaCl, 0.1% Tween-20), and the blots were incubated with the corresponding antibodies at a dilution of 1:1000–1:3000 in a blocking buffer at 4 °C overnight.
Primary antibodies utilized in this study included: anti-human DHODH (#SC-166348; Santa Cruz), anti–CHK1-pS345 (#2348; Cell Signaling), anti-POLD2 (#29765–1-AP; Proteintech), anti-POLD1 (#15646–1-AP; Proteintech), anti-p53 (#SC-126; Santa Cruz), anti-KRAS, clone 4F3 (#SAB1404011; Sigma-Aldrich), anti-GAPDH (#ab9489; Abcam), anti–α-tubulin (#T9026; Sigma-Aldrich), anti-BAX (#SC-23959; Santa Cruz), anti-cytochrome c (#66264–1-IG; Proteintech), anti-DR5 (#3696; Cell Signaling, dilution 1:500), anti–caspase-8 (#SC-56070; Santa Cruz), and anti–caspase-3 (#9662; Cell Signaling, dilution 1:500). The membranes were incubated at room temperature for 1 h with secondary antibodies (diluted 1:3000–5000), either anti-rabbit (#A0545; Sigma-Aldrich) or anti-mouse IgG-horseradish peroxidase-conjugated (#A9044; Sigma-Aldrich), in TBS-T. The images were analyzed and quantified using ImageStudio software (LI-COR) or ImageQuant 10.2 TL analysis software (Cytiva Life Sciences).

Data set [4] relates to SW620 cells. Kind of data set: DHODH-dependent respiration (permeabilized cells). Conditions: 24 h; NK-A 17E-233I 25 µM, Brequinar 100 µM; excess exogenous DHO. Format: cell-based, human. As to the method: Cells were resuspended in MiR05 medium and transferred into the chambers of the Oxygraph-2k instruments. The OCR in digitonin-permeabilized cells was monitored in the presence of the complex I inhibitor (0.5 μM rotenone), 1 mM DHO, 3 mM ADP, 10 μM cytochrome c, and 30 μM Leflunomide. DHODH-mediated respiration was calculated by subtracting the residual respiration rate after the addition of 30 μM Leflunomide from the respiration rate measured in the presence of 0.5 μM rotenone, 1 mM DHO, 3 mM ADP, and 10 μM cytochrome c.

The test system of data set [5] is SW620 cells. Briefly: Complex I- and complex II-dependent respiration (permeabilized cells). Conditions: 100 µM, 24 h. Format: cell-based, human. As to the method: Following treatment, cells were detached using trypsin–EDTA, washed with PBS, and resuspended in MiR05 media (composed of 110 mM sucrose, 60 mM potassium-lactobionate, 0.5 mM EGTA, 3 mM MgCl2·6H2O, 20 mM taurine, 10 mM KH2PO4, 20 mM HEPES adjusted to pH 7.1 with KOH at 37 °C, and 1 g/L BSA) at a concentration of 5 × 10^5 cells/mL. The cells were then transferred into 2 mL Oxygraph chambers for real-time measurement of OCR. Initial permeabilization was achieved using 7 μg of digitonin, followed by the sequential addition of substrates and inhibitors: 5 mM ADP, 2 mM malate, 10 μM cytochrome c, 5 mM pyruvate, 10 mM glutamate, 10 mM succinate, 0.5 μM rotenone, and 2.5 μM antimycin A. Mitochondrial membrane integrity was confirmed through the addition of cytochrome c (10 μM), with observed changes in OCR remaining below 10%. Complex I-mediated respiration was evaluated following the addition of complex I substrates (malate/pyruvate/glutamate), while complex II-mediated respiration was assessed in the presence of the complex II substrate (succinate) and the complex I inhibitor (rotenone). Residual oxygen consumption after the addition of antimycin A was subtracted from all the results to yield mitochondria-specific rates. […] Oxygen consumption rates were expressed as picomoles (pmol) per second per million cells (Mill) and normalized to the mitochondrial copy number in each sample.

The test system of a further data set is DHODH. More on the design: method as in PMID 35184687. Conditions: 100 µM; same experimental setup; cited from earlier work.
Data set [6] deals with colorectal cancer cells. Briefly: Flow cytometry-based cell cycle analysis. More on the design: species or system human. Conditions: washout 12 h; NK-A 17E-233I 25 µM, HU 1 mM. Here is the method: Cancer cells (3 × 10^4) were cultured in 48-well plates and treated with DMSO or NK-A 17E-233I (25 µM) for 24 h. Following treatment, all wells were washed with PBS (#P4417; Sigma-Aldrich), and the cells were collected in Eppendorf tubes. The cells were harvested using 0.25% trypsin (#25200056; ThermoScientific) and 0.02% EDTA (1:1) (#17892; ThermoFisher Scientific) for 2 min, followed by the addition of DMEM. The tubes were then centrifuged at 500 × g for 5 min. The supernatant was discarded, and the pellets were fixed in 70% cold ethanol and stored at -20 °C for at least 1 h. The pellets were resuspended in 1 mL PBS and centrifuged at 500 × g at 4 °C for 5 min. The supernatant was discarded once again, and the pellets were subsequently reconstituted in a solution containing propidium iodide (PI; #25,535–16-4, Merck) and RNase (#N8080119, Applied Biosystems), followed by storage at 4 °C overnight. Cell cycle analysis was conducted using a CytoFLEX flow cytometer (Beckman Coulter; 405 nm laser). Cells were gated based on size and granularity on a forward scatter (FSC)/side scatter (SSC) plot, with cell debris excluded from the analysis. Mean fluorescence intensity from 1 × 10^4 cells was recorded. Data analysis was conducted using FlowJo software v10.8.1 (BD Life Sciences).
(In flow cytometry, cells or beads pass a laser one at a time.)

T1 sequence (Q02127 29-395, stated change not applied): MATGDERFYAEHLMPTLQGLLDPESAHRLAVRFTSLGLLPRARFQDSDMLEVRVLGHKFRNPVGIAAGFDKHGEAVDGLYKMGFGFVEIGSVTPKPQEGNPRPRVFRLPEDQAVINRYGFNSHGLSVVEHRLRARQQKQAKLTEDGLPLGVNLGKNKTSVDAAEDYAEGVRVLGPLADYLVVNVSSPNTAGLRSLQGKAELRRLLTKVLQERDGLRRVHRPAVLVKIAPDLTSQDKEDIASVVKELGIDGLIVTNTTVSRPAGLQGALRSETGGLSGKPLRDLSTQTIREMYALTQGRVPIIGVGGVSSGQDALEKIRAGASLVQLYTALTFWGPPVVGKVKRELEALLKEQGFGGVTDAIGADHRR

Turning to `O=C(O)c1cc(=O)[nH]c(=O)[nH]1` [orotate], the Ki (in general, a dissociation constant, usually derived from enzyme kinetics or from competition with a known ligand) on human DHODH (competitive inhibitor concerning DHO) is 11 µM.

With `Cc1c(-c2ccc(-c3ccccc3F)cc2)nc2ccc(F)cc2c1C(=O)O` [Brequinar, reference compound], in the data set with SW620 cells [1], the IC50 (as a rule, the point on the concentration scale where inhibition reaches its midpoint) stood at 100 µM. Moreover, the “average of the fitted slopes” value on Δ29 DHODH (N-truncated) worked out at 1.1 ± 0.2. Moreover, in the data set on SW620 cells [2] (100 µM), the “parameters of mitochondrial respiration in intact cells” value is given as “decreased most of these respiration parameters”. In addition, the “basal and ATP-linked respiration in intact cells” value in the data set with SW620 cells [2] (NK-A 17E-233I 25 µM, Brequinar 100 µM) is “significantly decreased”. In the data set on colorectal cancer cells [3], the “levels of p53-mutant protein” value is recorded as “did not have an observed effect”. Besides, the “DHODH-mediated oxygen consumption rate” value in the data set on SW620 cells [4] is on record as “reduced”. The “complex II-mediated respiration” value in the data set with SW620 cells [5] is recorded as “stimulated”.

With `O=C1CC(C(=O)O)NC(=O)N1` (stereo not drawn) [DHO, dihydroorotate], the ΔTm (in general, the shift of the melting midpoint relative to a reference) in the data set with DHODH was 3.5 °C.

Consider `C/C(O)=C(\C#N)C(=O)Nc1ccc(C(F)(F)F)cc1` [Teriflunomide], for which, in the data set with human DHODH, the “mode of inhibition with respect to DHO” value is given as “uncompetitive inhibitors”.

Regarding `O=C1C(O)=C([C@H]2CC[C@H](c3ccc(Cl)cc3)CC2)C(=O)c2ccccc21` [Atovaquone], the “mode of inhibition with respect to DHO” value with human DHODH is listed as “uncompetitive inhibitors”.

Turning to `NC(=O)NO` [HU, hydroxyurea, reference compound], the “cell cycle after washout” value with colorectal cancer cells [6] is on record as “resumed proliferation”.
